Series [1] addresses T1, trehalose-releasing enzyme (Rhizobium sp. M-11, UniProt Q53238).
T1 construct: M-11, about 58-68 kDa
T1 sequence (Q53238 1-596): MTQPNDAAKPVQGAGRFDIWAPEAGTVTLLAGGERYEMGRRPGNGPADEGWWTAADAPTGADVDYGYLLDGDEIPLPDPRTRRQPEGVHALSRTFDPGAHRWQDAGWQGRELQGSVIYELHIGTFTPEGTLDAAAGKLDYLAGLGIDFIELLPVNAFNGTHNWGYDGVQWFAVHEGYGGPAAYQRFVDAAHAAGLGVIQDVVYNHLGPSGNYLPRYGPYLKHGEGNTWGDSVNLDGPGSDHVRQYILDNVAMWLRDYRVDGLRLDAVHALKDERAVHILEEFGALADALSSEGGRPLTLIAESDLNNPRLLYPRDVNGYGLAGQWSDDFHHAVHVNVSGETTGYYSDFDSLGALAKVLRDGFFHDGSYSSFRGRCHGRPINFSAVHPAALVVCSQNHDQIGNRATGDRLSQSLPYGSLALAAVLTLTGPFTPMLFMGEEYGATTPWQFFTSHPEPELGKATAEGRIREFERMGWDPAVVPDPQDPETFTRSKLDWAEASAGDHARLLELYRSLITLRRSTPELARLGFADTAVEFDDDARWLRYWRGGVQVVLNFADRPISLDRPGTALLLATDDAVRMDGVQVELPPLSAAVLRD
It is filed as biochemical, Rhizobium species M-11. Conditions: trehalose-releasing enzyme, 48 h, pH 7. As for the experimental part:
Alpha-glycosyl trehaloses as substrates were prepared in accordance with the method described in Japanese Patent Application No. 349,216/93. More particularly, 20% aqueous solutions of maltotriose, maltotetraose, maltopentaose, maltohexaose or maltoheptaose as reducing partial starch hydrolysate were added with 2 units/g substrate solid of a purified non-reducing saccharide-forming enzyme obtained by the method in […], reacted at 40° C. and pH7.0 for 48 hours, heated for inactivation, filtered, deionized, concentrated in conventional manner and applied to ion exchange column chromatography on a strongly-acidic cation exchange "XT-1016" in sodium form. The ion exchange resin was packed in 3 jacketed-stainless steel columns, inner diameter of 2.0 cm, length of 1 m, and the columns were cascaded, loaded with 5 v/v % reaction saccharide liquid against the resin and injected with 55° C. water at SV0.13 for fractionation while keeping the temperature inside the columns at 55° C., thus obtaining high-purity preparations of non-reducing saccharides with glucose polymerization degrees of 3 or higher.
20% Aqueous solutions of these five types of non-reducing saccharides or alpha-glycosyl trehaloses were prepared, added with 2 units/g substrate solid of the purified trehalose-releasing enzyme obtained in Experiment 15, reacted at 40° C. and pH7.0 for 48 hours, deionized and subjected to high-performance liquid chromatography on "WAKO BEADS WB-T-330" for analysis of reaction products. As control, maltotriose, maltotetraose, maltopentaose, maltohexaose and maltoheptaose were subjected to the purified trehalose-releasing enzyme similarly as above and then analyzed on high-performance liquid chromatography.

Series [2] concerns non-reducing saccharide-forming enzyme. The series is classed as biochemical, Rhizobium species M-11. The conditions noted are these: for Composition: newly formed saccharide: 20% substrate, 2 units/g, 40° C., pH7.0, 48 hours; for Composition: residual substrate: non-reducing saccharide-forming enzyme, 48 h, pH 7. As for the experimental part: 20% Aqueous solutions of glucose, maltose, maltotriose, maltotetraose, maltopentaose, maltohexaose or maltoheptaose as substrate were prepared, added with 2 units/g substrate solid of the purified enzyme obtained in Experiment 2, allowed to react at 40° C. and pH7.0 for 48 hours, deionized and analyzed for reaction products on high-performance liquid chromatography using "WAKO BEADS WB-T-330", a product of Wako Pure Chemical Industries, Ltd., Osaka, Japan. The high-performance liquid chromatography was conducted at ambient temperature, where water as eluent was flowed at a rate of 0.5 ml/min and "Model RI-8012", a differential reflactometer commercialized by Tosoh Corp., Tokyo, Japan, was used for analysis.

Series [3] in a line: Maillard reaction (coloration with glycine, absorbance at 480 nm). It is filed as physicochemical. Conditions: for Coloration degree at 480 nm: 10% saccharide, 1% glycine, 50 mM phosphate buffer pH7.0, 100° C., 90 minutes, 1 cm cuvette. As for the experimental part: Solutions of 10% saccharide preparation PI, PII, PIII, PIV or PV prepared in Experiment 4 and 1% glycine in 50 mM phosphate buffer (pH7.0) were incubated at 100° C. for 90 minuets, cooled and determined in 1 cm cuvette for absorbance at 480 nm. As control, maltotriose, maltotetraose, maltopentaose, maltohexaose and maltoheptaose which were used as the starting materials were treated similarly as above and determined for absorbance at 480 nm.
10% High-purity trehalose preparation, purity of 99.5%, obtained by the method in Experiment 17 and 1% glycine in 50 mM phosphate buffer (pH7.0) was incubated at 100° C. for 90 minutes, cooled and measured in lcm cuvette for absorbance at 480 nm. As control, glucose and maltose were treated similarly as above and then measured for absorbance at 480 nm.

The nature of series [4]: Properties of products (hygroscopicity, viscosity, stability, tonicity). The series is classed as physicochemical.
Series [5] is described as follows: Acute toxicity test, oral administration in mice. The series is classed as in vivo. The conditions noted are these: mouse, in vivo; oral, mice. As for the experimental part:
(§1) Acute toxicity tests were conducted on the non-reducing saccharide preparations PI, PII, PIII, PIV and PV prepared in Experiment 4, where they were orally administered to 7 week-old dd mice. […] Thus the LD50 of these saccharides was at least 50 g/kg or higher.
(§2) An acute toxicity test was conducted on a high-purity trehalose preparation obtained by the method in Experiment 17, purity of 99.5%, where it was orally administered in mice. […] Thus its LD50 would be briefly 50 g/kg or higher.

Series [6] has as its system mice. Kind of series: Acute toxicity test, oral administration in mice. The series is classed as in vivo. The conditions noted are these: oral, mice. As for the experimental part: as §1, §2
The nature of series [7]: Test for assimilation in vivo (blood sugar and insulin levels). Conditions: 30 g oral, healthy men. As for the experimental part: In accordance with the method reported by Atsuji et al., Rinsho Eiyo (Clinical Nutrition), Vol.41, No. 2, pp.200-208 (1972), 30 g of a high-purity trehalose preparation, purity of 99.5%, obtained by the method in Experiment 17 was prepared into 20 w/v % aqueous solution and orally administered to healthy men, age of 26, 27, 28, 29, 30 or 31 years, after which their bloods were periodically sampled and measured for blood sugar and insulin levels. Glucose was used as control.

A short description of series [8]: Reducing power by the Somogyi-Nelson method, represented in terms of DE. It is filed as physicochemical. As for the experimental part:
The high-purity preparations of the newly formed saccharides were determined for reducing power by the Somogyi-Nelson method and represented in terms of DE.

Series [9] deals with pig kidney trehalase. Kind of series: Degradation by pig kidney trehalase. The conditions noted are these: trehalose, or trehalose formed from PI-PV; pH5.7, 37° C., 18 hours for the latter. It is filed as biochemical. As for the experimental part: In order to purify trehalose from respective reaction products, they were decolored, deionized, concentrated and subjected to column fractionation on a strongly-acidic cation exchange of sodium form "XT-1016", followed by recovering high-purity fractions with trehalose contents of 97% or higher. The fractions were then concentrated to about 65% and allowed to standing at 25° C. for 2 days to crystallize out crystalline trehalose hydrate which was then separated and dried in vacuo to obtain a high-purity preparation with a trehalose content of 99% or higher. The yields against respective starting substrates on dry solid basis were as follows: from glycosyl trehalose, 9.5%; from maltosyl trehalose, 14.9%; from maltotriosyl trehalose, 16.0%; from maltotetraosyl trehalose, 18.5%; and from maltopentaosyl trehalose, 17.7%. […] As evident from the above results, the saccharides formed by subjecting alpha-glycosyl trehaloses to the trehalose-releasing enzyme were identified to be trehalose.

“Also recorded” adds a separate entry of the source. A value given as a limit tells only on which side of the number the result lay.

Experimental findings from patent US5919668A, “Non-reducing saccharide and its production and use” (Kabushiki Kaisha Hayashibara Seibutsu Kagaku Kenkyujo, priority 1994, dated 1999) are described below.

Take `OC[C@H]1O[C@H](O[C@H]2[C@H](O)[C@@H](O)[C@@H](O[C@H]3[C@H](O)[C@@H](O)C(O)O[C@@H]3CO)O[C@@H]2CO)[C@H](O)[C@@H](O)[C@@H]1O` (stereo partly drawn) [Maltotriose, maltotriose, reference compound]: in [1], the “Composition: residual substrate” value worked out at 100%. Moreover, in [2], the “Composition: newly formed saccharide” value is given as 35.0% and the “Composition: residual substrate” value worked out at 65.0%. Moreover, in series [3], the “Coloration degree at 480 nm” value turned out to be 0.623.
Take `OC[C@H]1O[C@H](O[C@H]2O[C@H](CO)[C@@H](O)[C@H](O)[C@H]2O)[C@H](O)[C@@H](O)[C@@H]1O` [Example A-5]: the “Hygroscopicity (in words)” value in [4] is given as “substantially free of hygroscopicity”.
For `OC[C@H]1O[C@H](O[C@H]2O[C@H](CO)[C@@H](O)[C@H](O)[C@H]2O)[C@H](O)[C@@H](O)[C@@H]1O` [Trehalose, alpha,alpha-trehalose], in series [5], the LD50 (as a rule, the dose at which mortality reaches 50%) is at least 50000 mg/kg. The “Animal death at the possible highest dose” value in series [6] is “caused no death even in the possible highest dose”. Moreover, in [7] (20 w/v % aqueous solution), the “Time of maximum blood sugar level after administration” value lay in the range of 0.5 to 1 h and the “Time of maximum insulin level after administration” value fell in the range of 0.5 to 1 h. For the same compound, in [7] (glucose as control), the “Assimilation (in words)” value was “trehalose behaved similarly as glucose did; also recorded: readily digested and absorbed and then metabolized and utilized as energy source”. In addition, in series [8], the “Reducing power (in words)” value is “exhibits no reducing power”. In series [3], the “Coloration degree at 480 nm” value stood at 0.006. The “Coloration relative to glucose and maltose” value in series [3] (480 nm, with glycine) is given as 0.4-0.6%. Moreover, in [9], the “Degradation by pig kidney trehalase (in words)” value is on record as “degraded by the trehalase derived from pig kidney”.
For `OC[C@H]1O[C@H](O[C@H]2[C@H](O)[C@@H](O)[C@@H](O[C@H]3[C@H](O)[C@@H](O)[C@@H](O[C@H]4[C@H](O)[C@@H](O)C(O)O[C@@H]4CO)O[C@@H]3CO)O[C@@H]2CO)[C@H](O)[C@@H](O)[C@@H]1O` (stereo partly drawn) [Maltotetraose, maltotetraose, reference compound], the “Composition: residual substrate” value in [1] is recorded as 100%. Besides, in series [2], the “Composition: newly formed saccharide” value is listed as 85.6% and the “Composition: residual substrate” value was found to be 14.4%. Also, the “Coloration degree at 480 nm” value in [3] is listed as 0.475.
As to `OC[C@H]1O[C@H](O[C@H]2[C@H](O)[C@@H](O)[C@@H](O[C@H]3[C@H](O)[C@@H](O)[C@@H](O[C@H]4[C@H](O)[C@@H](O)[C@@H](O[C@H]5[C@H](O)[C@@H](O)[C@@H](O[C@H]6[C@H](O)[C@@H](O)[C@@H](O[C@H]7[C@H](O)[C@@H](O)C(O)O[C@@H]7CO)O[C@@H]6CO)O[C@@H]5CO)O[C@@H]4CO)O[C@@H]3CO)O[C@@H]2CO)[C@H](O)[C@@H](O)[C@@H]1O` (stereo partly drawn) [Maltoheptaose, maltoheptaose, reference compound], in [1], the “Composition: residual substrate” value was found to be 100%. For the same compound, in series [2], the “Composition: newly formed saccharide” value was found to be 93.4% and the “Composition: residual substrate” value is given as 6.6%. In series [3], the “Coloration degree at 480 nm” value came to 0.271.
In the same order, the values of `OC[C@H]1O[C@H](O[C@H]2[C@H](O)[C@@H](O)[C@@H](O[C@H]3[C@H](O)[C@@H](O)[C@@H](O[C@H]4[C@H](O)[C@@H](O)[C@@H](O[C@H]5[C@H](O)[C@@H](O)[C@@H](O[C@H]6[C@H](O)[C@@H](O)C(O)O[C@@H]6CO)O[C@@H]5CO)O[C@@H]4CO)O[C@@H]3CO)O[C@@H]2CO)[C@H](O)[C@@H](O)[C@@H]1O` (stereo partly drawn) [Maltohexaose, maltohexaose, reference compound] are 100%, 93.5%, 6.5% and 0.318.
The matching figures for `OC[C@H]1O[C@H](O[C@H]2[C@H](O)[C@@H](O)[C@@H](O[C@H]3[C@H](O)[C@@H](O)[C@@H](O[C@H]4[C@H](O)[C@@H](O)[C@@H](O[C@H]5[C@H](O)[C@@H](O)C(O)O[C@@H]5CO)O[C@@H]4CO)O[C@@H]3CO)O[C@@H]2CO)[C@H](O)[C@@H](O)[C@@H]1O` (stereo partly drawn) [Maltopentaose, maltopentaose, reference compound]: 100%, 92.7%, 7.3% and 0.369.
For `OC[C@H]1O[C@H](O[C@H]2[C@H](O)[C@@H](O)C(O)O[C@@H]2CO)[C@H](O)[C@@H](O)[C@@H]1O` (mixture of isomers) [Maltose, maltose], in [2], the “Formation of new saccharides from substrate (in words)” value is listed as “No saccharides were newly formed” and the “Composition: residual substrate” value is reported as 100.0%. For the same compound, the “Coloration degree at 480 nm” value in series [3] turned out to be 0.926.
In the same order, the values of `OC[C@H]1OC(O)[C@H](O)[C@@H](O)[C@@H]1O` (stereo partly drawn) [Glucose, glucose] are “No saccharides were newly formed”, 100.0% and 1.671.
